Laboratory results reported in patent US11414431B2, “Substituted pyrazolo[1,5-a]pyrimidines as TYK2 inhibitors” (Nimbus Lakshmi, Inc., priority 2018, dated 2022).

Target: human TYK2 (JH2domain-pseudokinase) (Homo sapiens (Human), UniProt P29597)
Assay: TYK2 JH2 Domain Binding Assay (KINOMEscan)
Details: 11-point 3-fold dilution, top concentration 30,000 nM, duplicate; read-out: hTYK2_JH2_Binding (Kd; nM)
Protocol: Binding constants for compounds of the present invention against the JH2 domain were determined by the following protocol for a KINOMEscan® assay (DiscoveRx). A fusion protein of a partial length construct of human TYK2 (JH2domain-pseudokinase) (amino acids G556 to D888 based on reference sequence NP_003322.3) and the DNA binding domain of NFkB was expressed in transiently transfected HEK293 cells. From these HEK 293 cells, extracts were prepared in M-PER extraction buffer (Pierce) in the presence of Protease Inhibitor Cocktail Complete (Roche) and Phosphatase Inhibitor Cocktail Set II (Merck) per manufacturers' instructions. The TYK2(JH2domain-pseudokinase) fusion protein was labeled with a chimeric double-stranded DNA tag containing the NFkB binding site (5′-[…]-3′) fused to an amplicon for qPCR readout, which was added directly to the expression extract (the final concentration of DNA-tag in the binding reaction is 0.1 nM).
The liganded beads were blocked with excess biotin and washed with blocking buffer (SeaBlock (Pierce), 1% BSA, 0.05% Tween 20, 1 mM DTT) to remove unbound ligand and to reduce nonspecific binding.
Extracts were loaded with DNA-tag and diluted into the binding reaction in a two step process. First extracts were diluted 1:100 in 1× binding buffer (PBS/0.05% Tween 20/10 mM DTT/0.1% BSA/2 μg/ml sonicated salmon sperm DNA) containing 10 nM DNA-tag. This dilution was allowed to equilibrate at room temperature for 15 minutes and then subsequently diluted 1:100 in 1× binding buffer. […] Kds were determined using an 11-point 3-fold compound dilution series with three DMSO control points. […] The compounds were then diluted directly into the assays such that the final concentration of DMSO was 0.9%. All reactions performed in polypropylene 384-well plates. Each was a final volume of 0.02 mL. Assays were incubated with shaking for 1 hour at room temperature. Then the beads were pelleted and washed with wash buffer (lx PBS, 0.05% Tween 20) to remove displaced kinase and test compound. […] The qPCR protocol consisted of a 10 minute hot start at 95° C., followed by 35 cycles of 95° C. for 15 seconds, 60° C. for 1 minute.
Kds were determined using an 11-point 3-fold compound dilution series with three DMSO control points. […] The compounds were then diluted directly into the assays such that the final concentration of DMSO was 0.9%. The Kds were determined using a compound top concentration of 30,000 nM. Kd measurements were performed in duplicate.
Binding constants (Kds) were calculated with a standard dose-response curve using the Hill equation: […]
The Hill Slope was set to −1.

human TYK2 (JH2domain-pseudokinase), sequence (P29597 556-888): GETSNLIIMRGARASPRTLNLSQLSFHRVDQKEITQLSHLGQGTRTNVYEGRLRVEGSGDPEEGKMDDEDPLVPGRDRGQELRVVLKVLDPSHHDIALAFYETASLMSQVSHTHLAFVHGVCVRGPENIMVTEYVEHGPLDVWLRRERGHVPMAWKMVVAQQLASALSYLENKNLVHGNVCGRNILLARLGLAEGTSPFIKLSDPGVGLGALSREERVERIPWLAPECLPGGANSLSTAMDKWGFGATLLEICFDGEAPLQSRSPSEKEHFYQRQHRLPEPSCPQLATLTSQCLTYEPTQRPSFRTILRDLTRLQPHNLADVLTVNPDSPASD

SMILES | Kd
CNc1cc(-c2cn(C3CCOCC3)c3ncccc23)nc2c(C(=O)N[C@H]3CCC[C@H](O)C3)cnn12 [Compound I-65, N-((1S,3S)-3-Hydroxycyclohexyl)-7-(methylamino)-5-(1-(tetrahydro-2H-pyran-4-yl)-1H-pyrrolo[2,3-b]pyridin-3-yl)pyrazolo[1,5-a]pyrimidine-3-carboxamide] | < 0.2 nM
CNc1cc(Nc2cccn(C3CC(F)(F)C3)c2=O)nc2c(C(=O)N[C@@H]3CC[C@@H](OC)C3)cnn12 [Compound I-72, 5-((1-(3,3-Difluorocyclobutyl)-2-oxo-1,2-dihydropyridin-3-yl)amino)-N-((1R,3R)-3-methoxycyclopentyl)-7-(methylamino)pyrazolo[1,5-a]pyrimidine-3-carboxamide] | 1 to 10 nM
CNc1cc(Nc2cccn(C3CC(F)(F)C3)c2=O)nc2c(C(=O)N[C@H]3CC[C@H](OC)C3)cnn12 [Compound I-73, 5-((1-(3,3-Difluorocyclobutyl)-2-oxo-1,2-dihydropyridin-3-yl)amino)-N-((1S,3S)-3-methoxycyclopentyl)-7-(methylamino)pyrazolo[1,5-a]pyrimidine-3-carboxamide] | 1 to 10 nM
CNc1cc(Nc2cccn([C@@H]3CCC[C@@H]3O)c2=O)nc2c(C(=O)N[C@@H]3CC[C@@H](OC)C3)cnn12 [Compound I-78, 5-((1-((1R,2S)-2-Hydroxycyclopentyl)-2-oxo-1,2-dihydropyridin-3-yl)amino)-N-((1R,3R)-3-methoxycyclopentyl)-7-(methylamino)pyrazolo[1,5-a]pyrimidine-3-carboxamide] | 0.2 to 1 nM
CNc1cc(Nc2cccn([C@@H]3CCC[C@@H]3O)c2=O)nc2c(C(=O)N[C@H]3CC[C@H](OC)C3)cnn12 [Compound I-79, 5-((1-((1R,2S)-2-Hydroxycyclopentyl)-2-oxo-1,2-dihydropyridin-3-yl)amino)-N-((1S,3S)-3-methoxycyclopentyl)-7-(methylamino)pyrazolo[1,5-a]pyrimidine-3-carboxamide] | 0.2 to 1 nM
CNc1cc(Nc2cccn([C@@H]3CC[C@@H]3O)c2=O)nc2c(C(=O)N[C@H]3CC[C@H](OC)C3)cnn12 [Compound I-82, 5-((1-((1R,2S)-2-Hydroxycyclobutyl)-2-oxo-1,2-dihydropyridin-3-yl)amino)-N-((1S,3S)-3-methoxycyclopentyl)-7-(methylamino)pyrazolo[1,5-a]pyrimidine-3-carboxamide] | > 10 nM
CNc1cc(Nc2cccn(-c3ncco3)c2=O)nc2c(C(=O)N[C@@H]3CC[C@@H](OC)C3)cnn12 [Compound I-83, N-((1R,3R)-3-Methoxycyclopentyl)-7-(methylamino)-5-((1-(oxazol-2-yl)-2-oxo-1,2-dihydropyridin-3-yl)amino)pyrazolo[1,5-a]pyrimidine-3-carboxamide] | 0.2 to 1 nM
CNc1cc(Nc2cccn(-c3ncco3)c2=O)nc2c(C(=O)N[C@H]3CC[C@H](OC)C3)cnn12 [Compound I-84, N-((1S,3S)-3-Methoxycyclopentyl)-7-(methylamino)-5-((1-(oxazol-2-yl)-2-oxo-1,2-dihydropyridin-3-yl)amino)pyrazolo[1,5-a]pyrimidine-3-carboxamide] | 0.2 to 1 nM
CNc1cc(Nc2cccn([C@H]3CC[C@H]3O)c2=O)nc2c(C(=O)N[C@@H]3CC[C@@H](OC)C3)cnn12 [Compound I-85, 5-((1-((1S,2R)-2-Hydroxycyclobutyl)-2-oxo-1,2-dihydropyridin-3-yl)amino)-N-((1R,3R)-3-methoxycyclopentyl)-7-(methylamino)pyrazolo[1,5-a]pyrimidine-3-carboxamide] | 1 to 10 nM
CNc1cc(Nc2cccn([C@H]3CC[C@H]3O)c2=O)nc2c(C(=O)N[C@H]3CC[C@H](OC)C3)cnn12 [Compound I-86, 5-((1-((1S,2R)-2-Hydroxycyclobutyl)-2-oxo-1,2-dihydropyridin-3-yl)amino)-N-((1S,3S)-3-methoxycyclopentyl)-7-(methylamino)pyrazolo[1,5-a]pyrimidine-3-carboxamide] | 1 to 10 nM
CNc1cc(Nc2cccn([C@H]3CCC[C@H]3O)c2=O)nc2c(C(=O)N[C@@H]3CC[C@@H](OC)C3)cnn12 [Compound I-87, 5-((1-((1S,2R)-2-Hydroxycyclopentyl)-2-oxo-1,2-dihydropyridin-3-yl)amino)-N-((1R,3R)-3-methoxycyclopentyl)-7-(methylamino)pyrazolo[1,5-a]pyrimidine-3-carboxamide] | > 10 nM
CNc1cc(Nc2cccn([C@H]3CCC[C@H]3O)c2=O)nc2c(C(=O)N[C@H]3CC[C@H](OC)C3)cnn12 [Compound I-88, 5-((1-((1S,2R)-2-Hydroxycyclopentyl)-2-oxo-1,2-dihydropyridin-3-yl)amino)-N-((1S,3S)-3-methoxycyclopentyl)-7-(methylamino)pyrazolo[1,5-a]pyrimidine-3-carboxamide] | > 10 nM
CNc1cc(Nc2cccn(C3CC(F)(F)C3)c2=O)nc2c(C(=O)N[C@H]3CCC[C@]3(C)O)cnn12 [Compound I-90, 5-((1-(3,3-Difluorocyclobutyl)-2-oxo-1,2-dihydropyridin-3-yl)amino)-N-((1S,2S)-2-hydroxy-2-methylcyclopentyl)-7-(methylamino)pyrazolo[1,5-a]pyrimidine-3-carboxamide] | > 10 nM
CNc1cc(Nc2cccn(C3CC(F)(F)C3)c2=O)nc2c(C(=O)N[C@@H]3CCC[C@@]3(C)O)cnn12 [Compound I-91, 5-((1-(3,3-Difluorocyclobutyl)-2-oxo-1,2-dihydropyridin-3-yl)amino)-N-((1R,2R)-2-hydroxy-2-methylcyclopentyl)-7-(methylamino)pyrazolo[1,5-a]pyrimidine-3-carboxamide] | < 0.2 nM
CNc1cc(Nc2cccn(C3CC(F)(F)C3)c2=O)nc2c(C(=O)N[C@@H]3CCC[C@@](C)(O)C3)cnn12 [Compound I-92, 5-((1-(3,3-Difluorocyclobutyl)-2-oxo-1,2-dihydropyridin-3-yl)amino)-N-((1R,3R)-3-hydroxy-3-methylcyclohexyl)-7-(methylamino)pyrazolo[1,5-a]pyrimidine-3-carboxamide] | > 10 nM
CNc1cc(Nc2cccn(C3CC(F)(F)C3)c2=O)nc2c(C(=O)N[C@H]3CCC[C@](C)(O)C3)cnn12 [Compound I-93, 5-((1-(3,3-Difluorocyclobutyl)-2-oxo-1,2-dihydropyridin-3-yl)amino)-N-((1S,3S)-3-hydroxy-3-methylcyclohexyl)-7-(methylamino)pyrazolo[1,5-a]pyrimidine-3-carboxamide] | 0.2 to 1 nM
CNc1cc(Nc2cccn([C@H]3CC[C@@H]3O)c2=O)nc2c(C(=O)N[C@@H]3CCC[C@@H](OC)C3)cnn12 [Compound I-96, 5-((1-((1S,2S)-2-Hydroxycyclobutyl)-2-oxo-1,2-dihydropyridin-3-yl)amino)-N-((1R,3R)-3-methoxycyclohexyl)-7-(methylamino)pyrazolo[1,5-a]pyrimidine-3-carboxamide] | 1 to 10 nM
CNc1cc(Nc2cccn([C@H]3CC[C@@H]3O)c2=O)nc2c(C(=O)N[C@H]3CCC[C@H](OC)C3)cnn12 [Compound I-97, 5-((1-((1S,2S)-2-Hydroxycyclobutyl)-2-oxo-1,2-dihydropyridin-3-yl)amino)-N-((1S,3S)-3-methoxycyclohexyl)-7-(methylamino)pyrazolo[1,5-a]pyrimidine-3-carboxamide] | 1 to 10 nM
